Source: the NIST ThermoML archive (doi:10.1021/acs.jced.9b00377)

Legend:
[1] = for viscosity: Falling or rolling sphere viscometry; for speed of sound: Single path-length method
[2] = refractive index (Na D-line) (dimensionless); conditions: 100 kPa, Liquid, Standard Abbe refractometry

CCCC(=O)[O-].CN(C)C(=[NH2+])N(C)C [1,1,3,3-tetramethylguanidinium butanoate]
[1], 100 kPa, Liquid
Conditions | speed of sound [m/s] | viscosity [mPa·s]
293.15 K | 1593.6 | 2480
298.15 K | 1576.5 | 1638
303.15 K | 1559.4 | 1049
308.15 K | 1542.3 | 694.1
313.15 K | 1525.1 | 453.1
318.15 K | 1508 | 318.2
323.15 K | 1490.9 | 223.5
328.15 K | 1475.5 | 158.5
333.15 K | 1458.4 | 114
338.15 K | 1441.3 | 88.1
343.15 K | 1424.1 | 65.7

[1], 100 kPa, Liquid, Vibrating tube method
Conditions | mass density [kg/m3]
293.15 K | 1032.2
298.15 K | 1028.74
303.15 K | 1025.27
308.15 K | 1021.74
313.15 K | 1018.24
318.15 K | 1014.77
323.15 K | 1011.3
328.15 K | 1007.79
333.15 K | 1004.24
338.15 K | 1000.67
343.15 K | 997.07

[2]
Conditions | refractive index
293.15 K | 1.4823
298.15 K | 1.4809
303.15 K | 1.4794
308.15 K | 1.4781
313.15 K | 1.4766
318.15 K | 1.4753
323.15 K | 1.474
328.15 K | 1.4727
333.15 K | 1.4716
338.15 K | 1.4704
343.15 K | 1.4693

CCCCCCC(=O)[O-].CN(C)C(=[NH2+])N(C)C [1,1,3,3-tetramethylguanidinium heptanoate]
[1], 100 kPa, Liquid
Conditions | speed of sound [m/s] | viscosity [mPa·s]
293.15 K | 1535.5 | 1827
298.15 K | 1517.9 | 1144
303.15 K | 1500.2 | 740.8
308.15 K | 1482.5 | 493.9
313.15 K | 1464.8 | 336.9
318.15 K | 1447.2 | 242.3
323.15 K | 1429.5 | 172.9
328.15 K | 1413.6 | 126.7
333.15 K | 1395.9 | 94.4
338.15 K | 1378.2 | 71.6
343.15 K | 1360.6 | 55.8

[1], 100 kPa, Liquid, Vibrating tube method
Conditions | mass density [kg/m3]
293.15 K | 986.16
298.15 K | 982.69
303.15 K | 979.2
308.15 K | 975.61
313.15 K | 972.09
318.15 K | 968.56
323.15 K | 965
328.15 K | 961.39
333.15 K | 957.74
338.15 K | 954.06
343.15 K | 950.35

[2]
Conditions | refractive index
293.15 K | 1.4792
298.15 K | 1.4776
303.15 K | 1.4759
308.15 K | 1.474
313.15 K | 1.4722
318.15 K | 1.4707
323.15 K | 1.4689
328.15 K | 1.4674
333.15 K | 1.4656
338.15 K | 1.464
343.15 K | 1.4628

CCCCCC(=O)[O-].CN(C)C(=[NH2+])N(C)C [1,1,3,3-tetramethylguanidinium hexanoate]
[1], 100 kPa, Liquid
Conditions | speed of sound [m/s] | viscosity [mPa·s]
293.15 K | 1539 | 1534
298.15 K | 1522.2 | 1001
303.15 K | 1505.5 | 657.8
308.15 K | 1488.8 | 442.1
313.15 K | 1472.1 | 309.8
318.15 K | 1455.4 | 221.1
323.15 K | 1438.7 | 159.5
328.15 K | 1423.6 | 118.5
333.15 K | 1406.9 | 89.4
338.15 K | 1390.2 | 69.3
343.15 K | 1373.5 | 54

[1], 100 kPa, Liquid, Vibrating tube method
Conditions | mass density [kg/m3]
293.15 K | 997.51
298.15 K | 994.1
303.15 K | 990.61
308.15 K | 987.16
313.15 K | 983.73
318.15 K | 980.29
323.15 K | 976.82
328.15 K | 973.32
333.15 K | 969.78
338.15 K | 966.22
343.15 K | 962.63

[2]
Conditions | refractive index
293.15 K | 1.4701
298.15 K | 1.4684
303.15 K | 1.466
308.15 K | 1.4638
313.15 K | 1.4619
318.15 K | 1.4601
323.15 K | 1.458
328.15 K | 1.4563
333.15 K | 1.4544
338.15 K | 1.4528
343.15 K | 1.4511

CN(C)C(=[NH2+])N(C)C.O=C([O-])O [1,1,3,3-tetramethylguanidinium hydrogen carbonate]
Conditions | mass density [kg/m3]
[1], 173 K, 101.33 kPa, Crystal, X-ray diffraction | 1213

CCCCCCCC(=O)[O-].CN(C)C(=[NH2+])N(C)C [1,1,3,3-tetramethylguanidinium octanoate]
[1], 100 kPa, Liquid
Conditions | speed of sound [m/s] | viscosity [mPa·s]
293.15 K | 1497.3 | 1093
298.15 K | 1481.3 | 737.2
303.15 K | 1465.4 | 506.8
308.15 K | 1449.4 | 347.6
313.15 K | 1433.5 | 249.6
318.15 K | 1417.5 | 186.8
323.15 K | 1401.6 | 138.8
328.15 K | 1387.2 | 105.7
333.15 K | 1371.3 | 81.2
338.15 K | 1355.3 | 65
343.15 K | 1339.4 | 52.5

[1], 100 kPa, Liquid, Vibrating tube method
Conditions | mass density [kg/m3]
293.15 K | 969.06
298.15 K | 965.65
303.15 K | 962.28
308.15 K | 958.95
313.15 K | 955.63
318.15 K | 952.3
323.15 K | 948.95
328.15 K | 945.59
333.15 K | 942.23
338.15 K | 938.85
343.15 K | 935.46

[2]
Conditions | refractive index
293.15 K | 1.4678
298.15 K | 1.4657
303.15 K | 1.4631
308.15 K | 1.4612
313.15 K | 1.4589
318.15 K | 1.4565
323.15 K | 1.4544
328.15 K | 1.4523
333.15 K | 1.4501
338.15 K | 1.4482
343.15 K | 1.4463

CCCCC(=O)[O-].CN(C)C(=[NH2+])N(C)C [1,1,3,3-tetramethylguanidinium pentanoate]
[1], 100 kPa, Liquid
Conditions | speed of sound [m/s] | viscosity [mPa·s]
293.15 K | 1540.6 | 1241
298.15 K | 1524.7 | 797.9
303.15 K | 1508.7 | 561.1
308.15 K | 1492.8 | 382.2
313.15 K | 1476.8 | 268.2
318.15 K | 1460.8 | 199.7
323.15 K | 1444.9 | 147.7
328.15 K | 1430.5 | 111.4
333.15 K | 1414.6 | 85.2
338.15 K | 1398.6 | 67.7
343.15 K | 1382.7 | 54

[1], 100 kPa, Liquid, Vibrating tube method
Conditions | mass density [kg/m3]
293.15 K | 1010.3
298.15 K | 1006.9
303.15 K | 1003.4
308.15 K | 1000
313.15 K | 996.64
318.15 K | 993.25
323.15 K | 989.84
328.15 K | 986.42
333.15 K | 982.98
338.15 K | 979.53
343.15 K | 976.07

[2]
Conditions | refractive index
293.15 K | 1.4776
298.15 K | 1.4758
303.15 K | 1.4736
308.15 K | 1.4718
313.15 K | 1.4699
318.15 K | 1.4681
323.15 K | 1.4664
328.15 K | 1.4648
333.15 K | 1.4633
338.15 K | 1.4615
343.15 K | 1.46
